Melting point data for four compounds are collected here from patent US7026505B2, “Method of treating tinnitus” (Warner-Lambert Company, priority 2002, dated 2006).

Structures are written as SMILES. Counter-ions that a name gives are not always drawn.

Regarding `CC(C)CC(CN)Cc1noc(=S)[nH]1.Cl` (stereo not shown), the melting point fell in the range of 183 to 185 °C.

In the case of `Cl.NCC1(Cc2noc(=S)[nH]2)CCCCC1`, the melting point lay within 210 to 212 °C.

The compound `CCCC(C(C)C)C(CN)CC(=O)O` (stereo not shown) (as salt: HCl) registered a melting point of 160 to 170 °C.

`CS(=O)(=O)NCCC1(CN)CCCCC1.Cl` displayed a melting point of 196 to 199 °C.
